Test results from patent US9873693B2 (Sunesis Pharmaceuticals, Inc., priority 2006, dated 2018).
Where two headings read alike, the source gives them in different places.

Columns and labels:
[1] = system: Phospho-T308 Akt; test: Phospho-T308 Akt detection using immunoblot (western blot) in PC-3 cells; type: cell-based; settings: for Reduction of Cellular Levels of Akt p308 By Western: 2 hour incubation, concentration not given in Table 2; for inhibition at 2 µM / inhibition at 5 µM: Homo sapiens, read-out: Percent Inhibition of phospho-Akt (308) By Western
Method: A Phospho-T308 Akt detection using immunoblot (western blot) analysis was performed as described below.
PC-3 prostate cells were plated in a 6 well plate in F12K media (Invitrogen, Carlsbad, Calif.) plus 10% FBS (Invitrogen) and placed in incubator overnight. The stock of compound A was a 50 mM solution in DMSO. 1000× dilutions of the compound were made in DMSO. The 1000× dilutions include, 35 mM, 25 mM, 15 mM, 10 mM, 7 mM, 5 mM, and 1 mM. 1 μl of the 1000× dilutions was added to 1 ml F12K media without serum for final concentrations of […]. 1 μl of DMSO was added to 1 ml media with no serum for a control. The 1 ml DMSO or compound plus media was then added to the cells. Following a 2 hour incubation at 37° C., cells were harvested and washed in PBS and subjected to centrifugation at 3,300 rpm for 5 minutes. Cells were lysed in 100 μl of Bio Rad Bioplex buffer containing protease inhibitors (BioRad, Hercules, Calif.) for 30 minutes on ice followed by centrifugation at 13,000 rpm for 5 minutes. The protein content of the supernatant was assayed using DC Protein Assay (BioRad). 25 μl of protein was added to 4× sample buffer (Invitrogen) and sample reducer (Invitrogen) and run on a 4-12% NuPage gel (Invitrogen). Proteins were then transferred to nitrocellulose (Invitrogen). The membrane was blocked in Tris-buffered saline (Sigma, St. Louis, Mo.) plus 0.1% Tween (Sigma) (T-TBS) plus 5% blotting grade milk (BioRad) for 60 minutes. Membranes were then incubated in T-TBS plus 5% BSA (Sigma) plus 1:1000 of anti-phospho akt (Thr 308) (Cell Signaling Technology, Beverly, Mass.) overnight at 4° C. Membranes were washed in T-TBS then incubated in 1:2000 of anti-rabbit-HRP (Cell Signaling) in TTBS plus 5% milk. Membranes were washed again and proteins were visualized with Super Signal West Pico (Pierce, Rockford, Ill.) and using Kodak BioMax MR film (Kodak, Rochester, N.Y.).
Phospho-akt 308 protein bands on the film were quantified using densitometry. An Alpha Imager (Alpha Innotech Corp, San Leandro, Calif.) using AlphaEase FC software version 4.1.0 (Alpha Innotech Corp.) was used to quantitate protein bands. Briefly, a rectangle of equal size was placed around each protein band as well as a background spot on the film. The densitometry values (IDV=Integrated Density Value) obtained for the background spot was then subtracted from the values obtained for the protein bands. These values were used to obtain an EC50 value using non-linear regression analysis in GraphPad Prism Version 4.00 (Graph Pad Prism, San Diego, Calif.). Percent decrease in expression of phosphoh-akt 308 were also measured specifically at 2 μM and 5 μM levels of inhibitor.

[2] = target: dephosphorylated PDK1 (Homo sapiens (Human), UniProt O15530); test: PDK1 kinase assay (coupled PDK1/AKT/FAM-crosstide, IMAP); type: biochemical; settings: 25 nM un-phosphorylated PDK1, 24 μM ATP; read-out: Inhibition of dephospo-PDK1 in vitro IC50
Procedure, shortened: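 The FAM-crosstide phosphorylation readout was IMAP polarization (ex 485/em 530 nm, 2 h binding), with 4-parameter fits of ΔmP data. The reaction ran 30 min at 25 °C with 24 μM ATP, and contained 25 nM phosphatase-treated PDK1 (aa 51–360) plus 30 nM unphosphorylated AKT2-PIFtide and 100 nM substrate. Buffer was 10 mM Tris pH 7.2, 10 mM MgCl2, 0.01% Triton X-100 and 1 mM DTT.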

[3] = target: phosphorylated PDK1 (Homo sapiens (Human), UniProt O15530); test: as above; type: biochemical; settings: 0.5 nM phosphorylated PDK1, 24 μM ATP; read-out: Inhibition of phospo-PDK1 in vitro IC50
[4] = system: phospho-akt (Thr308); test: phospho-akt (Thr308) MSD ELISA in PC-3 cells; type: cell-based; settings: Homo sapiens; for inhibition at 1 µM / inhibition at 10 µM: read-out: Percent Inhibition of phospho-Akt (308) By MSD ELISA; for EC50: PC-3, 2 h
Procedure, shortened: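 Read-out is MSD electrochemiluminescence after lysate capture overnight at 4 degrees and 1 hr RT detection-antibody step. Before lysis, overnight-plated PC-3 cells received three-fold serial dilutions of inhibitor in serum-free medium, with DMSO-only high controls.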

[5] = PC-3 cells, 2 hours, no serum, read-out: Reduction of Cellular Levels of Akt p308 By MSD ELISA (EC50 μM)
[6] = PC-3 cells, 2 hours, no serum, read-out: Inhibition of P308 Akt in cells using MSD EC50

Sequence of phosphorylated PDK1 (O15530 51-360): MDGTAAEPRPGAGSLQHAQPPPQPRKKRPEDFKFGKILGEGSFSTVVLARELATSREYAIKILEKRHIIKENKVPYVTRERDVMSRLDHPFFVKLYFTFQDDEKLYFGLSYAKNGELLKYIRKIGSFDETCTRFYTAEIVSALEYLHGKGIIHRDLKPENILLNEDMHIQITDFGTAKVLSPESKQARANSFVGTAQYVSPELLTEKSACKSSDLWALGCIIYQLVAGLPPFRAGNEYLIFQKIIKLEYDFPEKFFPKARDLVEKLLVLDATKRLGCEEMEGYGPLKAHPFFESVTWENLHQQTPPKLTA
Sequence of dephosphorylated PDK1 (O15530 51-360): as above

Structure (SMILES) | Reduction of Cellular Levels of Akt p308 By Western [1] | inhibition at 2 µM [1] [%] | IC50 [2] [nM] | IC50 [3] [nM] | inhibition at 1 µM ([4]; PC-3 cells) [%] | inhibition at 10 µM ([4]; PC-3 cells) [%] | inhibition at 5 µM [1] [%] | EC50 [4, 5] [µM] | EC50 [4, 6] [µM] | EC50 ([4]; read-out: Reduction of Cellular Levels of Akt p308 By MSD ELISA (EC50 μM)) [µM]
O=C(NCc1ccc(-c2c[nH]c3nccnc23)s1)c1cccn(Cc2ccc(F)c(F)c2)c1=O [Cpd 14] | bb (inhibition of from 25% to 75%) | 25 to 75 | < 500 | < 500 | 25 to 75 | 25 to 75 | – | – | – | –
O=C(NCc1cccc(-c2cn[nH]c2)c1)c1cccn(Cc2ccc(F)c(F)c2)c1=O [Cpd 222] | bb (inhibition of from 25% to 75%) | – | < 500 | 500 to 10000 | – | – | 25 to 75 | > 5 | – | –
COC(=O)[C@@H](COc1ccc2[nH]c(=O)[nH]c2c1)NC(=O)c1cccn(Cc2ccc(F)c(F)c2)c1=O [Cpd 293] | bb (inhibition of from 25% to 75%) | – | < 500 | < 500 | 25 to 75 | > 75 | 25 to 75 | – | – | –
O=C(NCc1noc(-c2c[nH]c3ncccc23)n1)c1cc(Cl)cn(Cc2ccc(Cl)cc2)c1=O [Cpd 309] | bb (inhibition of from 25% to 75%) | – | < 500 | < 500 | 25 to 75 | > 75 | 25 to 75 | – | 1 to 5 | –
O=C(NCc1cccc(-c2ccc3nccn3c2)c1)c1cccn(Cc2ccc(F)c(F)c2)c1=O [Cpd 9] | bbb (inhibition of more than 75%) | – | < 500 | < 500 | – | – | – | – | – | –
C=CCOC(=O)C[C@@H](NC(=O)c1cccn(Cc2ccc(F)c(F)c2)c1=O)c1ncc(-c2c[nH]c3ncccc23)o1 [Cpd 301] | bbb (inhibition of more than 75%) | – | < 500 | < 500 | 25 to 75 | 25 to 75 | > 75 | 1 to 5 | 1 to 5 | –
COC(=O)C[C@H](NC(=O)c1cccn(Cc2ccc(F)c(F)c2)c1=O)c1nnc(-c2c[nH]c3ncccc23)o1 [Cpd 291] | bbb (inhibition of more than 75%) | – | – | < 500 | 25 to 75 | > 75 | > 75 | – | < 1 | –
O=C(NC1CCCc2ccc(-c3c[nH]c4ncccc34)cc21)c1cccn(Cc2ccc(F)c(F)c2)c1=O (centres unmarked) [Cpd 16] | bb (inhibition of from 25% to 75%) | < 25 | < 500 | < 500 | – | – | – | > 5 | > 5 | –
COC(=O)[C@H](COc1ccc2[nH]c(=O)[nH]c2c1)NC(=O)c1cccn(Cc2ccc(F)c(F)c2)c1=O [Cpd 135] | bbb (inhibition of more than 75%) | – | < 500 | < 500 | – | – | > 75 | 1 to 5 | 1 to 5 | –
CC(C)(C)OC(=O)NC[C@@H](NC(=O)c1cccn(Cc2ccc(F)c(F)c2)c1=O)c1nc(-c2c[nH]c3ncccc23)cs1 [Cpd 295] | bb (inhibition of from 25% to 75%) | – | < 500 | < 500 | < 25 | > 75 | 25 to 75 | – | 1 to 5 | –
O=C(NCc1noc(-c2c[nH]c3ncccc23)n1)c1cccn(Cc2ccc(Cl)cc2)c1=O [Cpd 305] | bbb (inhibition of more than 75%) | – | < 500 | < 500 | < 25 | > 75 | > 75 | – | 1 to 5 | –
O=C(NCc1cccc(-c2ccc3n[nH]c(=O)n3c2)c1)c1cccn(Cc2ccc(F)c(F)c2)c1=O [Cpd 216] | bb (inhibition of from 25% to 75%) | – | < 500 | 500 to 10000 | – | – | 25 to 75 | – | – | –
CNC(=O)C[C@@H](NC(=O)c1cccn(Cc2ccc(F)c(F)c2)c1=O)c1ccc(-c2c[nH]c3ncccc23)s1 [Cpd 18] | bb (inhibition of from 25% to 75%) | 25 to 75 | – | < 500 | – | – | – | 1 to 5 | 1 to 5 | –
CNC(=O)C[C@@H](NC(=O)c1cccn(Cc2ccc(F)c(F)c2)c1=O)c1nnc(-c2c[nH]c3ncccc23)o1 [Cpd 299] | bb (inhibition of from 25% to 75%) | – | – | < 500 | < 25 | < 25 | 25 to 75 | – | – | –
O=C(NCc1cccc(-c2c[nH]c3ncc(CO)cc23)c1)c1cccn(Cc2ccc(F)c(F)c2)c1=O [Cpd 225] | bbb (inhibition of more than 75%) | – | < 500 | – | – | – | > 75 | < 1 | – | –
O=C(NCc1ccc(-c2c[nH]c3ncc(CO)cc23)s1)c1cccn(Cc2ccc(F)c(F)c2)c1=O [Cpd 12] | bb (inhibition of from 25% to 75%) | 25 to 75 | – | < 500 | 25 to 75 | > 75 | – | – | < 1 | –
O=C(O)c1cnc2[nH]cc(-c3ccc(CNC(=O)c4cccn(Cc5ccc(F)c(F)c5)c4=O)s3)c2c1 [Cpd 21] | b (inhibition of less 25%) | < 25 | – | < 500 | – | – | – | – | – | > 5
O=C(NCc1noc(-c2c[nH]c3ncccc23)n1)c1cccn(Cc2cccc(Cl)c2)c1=O [Cpd 294] | bb (inhibition of from 25% to 75%) | – | < 500 | < 500 | – | – | 25 to 75 | – | – | –
O=C(NCc1cccc(-c2c[nH]c3ncc(F)cc23)c1)c1cccn(Cc2ccc(F)c(F)c2)c1=O [Cpd 10] | bbb (inhibition of more than 75%) | – | – | < 500 | 25 to 75 | > 75 | > 75 | – | 1 to 5 | –
NC(=O)C[C@@H](NC(=O)c1cccn(Cc2ccc(F)c(F)c2)c1=O)c1nnc(-c2c[nH]c3ncccc23)o1 [Cpd 289] | b (inhibition of less 25%) | – | < 500 | – | < 25 | < 25 | < 25 | – | – | –
O=C(NCc1ncc(-c2c[nH]c3ncccc23)s1)c1cccn(Cc2ccc(F)c(F)c2)c1=O [Cpd 132] | bbb (inhibition of more than 75%) | – | – | < 500 | 25 to 75 | > 75 | > 75 | – | < 1 | –
